From ChEMBL document CHEMBL1130436, “Synthesis and opioid activity of conformationally constrained dynorphin A analogues. 2. Conformational constraint in the "address" sequence” (J Med Chem, 1997) come the findings set out here.

For test [1], the species on record is Cavia porcellus. The test can be described thus: Opioid activity in guinea pig ileum. It counts as functional.
Test [2] deals with Kappa-type opioid receptor (Cavia porcellus, UniProt P41144). Nature of the test: Binding affinity of compound was measured on Opioid receptor kappa 1 by competitive inhibition of radioligand [3H]diprenorphine using cloned receptors transiently expressed on COS-7 (monkey kidney) cells. In kind it is cell-based.
Test [3] deals with Mu-type opioid receptor (Cavia porcellus, UniProt P97266). The test can be described thus: Binding affinity of compound was measured on Opioid receptor mu 1 by competitive inhibition of radioligand [3H]DAMGO using cloned receptors transiently expressed on COS-7 (monkey kidney) cells. It counts as cell-based.
The target in test [4] is Delta-type opioid receptor (Homo sapiens, UniProt P41143). Nature of the test: Binding affinity of compound was measured on Opioid receptor delta 1 by competitive inhibition of radioligand [3H]DPDPE using cloned receptors transiently expressed on COS-7 (monkey kidney) cells. In kind it is cell-based.

In test [1], `CC[C@H](C)[C@H](NC(=O)[C@H](CCCNC(=N)N)NC(=O)[C@@H]1CCNC(=O)C[C@@H](NC(=O)CNC(=O)[C@@H](N)Cc2ccc(O)cc2)C(=O)N[C@@H](Cc2ccccc2)C(=O)N[C@@H](CC(C)C)C(=O)N1)C(=O)N[C@@H](CCCNC(=N)N)C(=O)N1CCC[C@H]1C(=O)N[C@@H](CCCCN)C(=O)N[C@@H](CC(C)C)C(=O)N[C@@H](CCCCN)C(N)=O` registered an IC50 of 880 nM. Also, the inhibitory constant (Ki) in test [2] is 270 nM; in test [3] it was 210 nM; in test [4], 1000 nM.
Take `CC[C@H](C)[C@H](NC(=O)[C@H](CCCNC(=N)N)NC(=O)[C@@H]1CNC(=O)C[C@@H](NC(=O)CNC(=O)[C@@H](N)Cc2ccc(O)cc2)C(=O)N[C@@H](Cc2ccccc2)C(=O)N[C@@H](CC(C)C)C(=O)N1)C(=O)N[C@@H](CCCNC(=N)N)C(=O)N1CCC[C@H]1C(=O)N[C@@H](CCCCN)C(=O)N[C@@H](CC(C)C)C(=O)N[C@@H](CCCCN)C(N)=O`: the IC50 in test [1] is 1000 nM. Besides, the inhibition constant Ki was found to be 480 nM in test [2], 910 nM in test [3] and 2800 nM in test [4].
